Values joined by “and” are separate entries in the source; they are usually repeats but may differ in a detail not shown here. Equal values may be shown once.
Tested on: 885724-159-R-J1-PDC KRAS PDC multicell spheroid viability
Experiment: Anticancer human tumor 885724-159-R-J1-PDC patient-derived pancreatic adenocarcinoma cell line growth inhibition [KRAS2]
Conditions: for viability, T/C: stronger effect = lower value; active means viability on the fitted dose curve at most 10% of control; inactive means the rest
Summary of the method: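 Combination screen of spheroid viability in tumor-cell co-cultures with endothelial (HUVEC) and mesenchymal stem cell stroma. Each agent was tested in half-log dilutions, topping at clinical Cmax or at 10 microM without a known Cmax.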

[1] = curve of first compound, second compound 0.1 µM
[2] = curve of first compound, second compound 0.316 µM
[3] = curve of first compound, second compound 1 µM
[4] = curve of first compound, second compound 3.16 µM
[5] = curve of first compound, second compound 10 µM
[6] = second compound 0.1 µM, first compound 0.0316 µM
[7] = second compound 0.1 µM, first compound 0.1 µM
[8] = second compound 0.1 µM, first compound 0.316 µM
[9] = second compound 0.1 µM, first compound 1 µM
[10] = second compound 0.1 µM, first compound 3.16 µM
[11] = second compound 0.1 µM, first compound 10 µM
[12] = second compound 0.316 µM, first compound 0.0316 µM
[13] = second compound 0.316 µM, first compound 0.1 µM
[14] = second compound 0.316 µM, first compound 0.316 µM
[15] = second compound 0.316 µM, first compound 1 µM
[16] = second compound 0.316 µM, first compound 3.16 µM
[17] = second compound 0.316 µM, first compound 10 µM
[18] = second compound 1 µM, first compound 0.0316 µM
[19] = second compound 1 µM, first compound 0.1 µM
[20] = second compound 1 µM, first compound 0.316 µM
[21] = second compound 1 µM, first compound 1 µM
[22] = second compound 1 µM, first compound 3.16 µM
[23] = second compound 1 µM, first compound 10 µM
[24] = second compound 3.16 µM, first compound 0.0316 µM
[25] = second compound 3.16 µM, first compound 0.1 µM
[26] = second compound 3.16 µM, first compound 0.316 µM
[27] = second compound 3.16 µM, first compound 1 µM
[28] = second compound 3.16 µM, first compound 3.16 µM
[29] = second compound 3.16 µM, first compound 10 µM
[30] = second compound 10 µM, first compound 0.0316 µM
[31] = second compound 0.1 µM, first compound 0.01 µM
[32] = second compound 0.316 µM, first compound 0.01 µM
[33] = second compound 1 µM, first compound 0.01 µM
[34] = second compound 3.16 µM, first compound 0.01 µM
[35] = curve of first compound, second compound 0.0316 µM
[36] = second compound 0.0316 µM, first compound 0.0316 µM
[37] = second compound 0.0316 µM, first compound 0.1 µM
[38] = second compound 0.0316 µM, first compound 0.316 µM
[39] = second compound 0.0316 µM, first compound 1 µM
[40] = second compound 0.0316 µM, first compound 3.16 µM
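Further: spheroids exposed to agents for 7 days before readout.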

O=C(c1cc(Cc2n[nH]c(=O)c3ccccc23)ccc1F)N1CCN(C(=O)C2CC2)CC1 + CC1OCC2(CCN(c3cnc(Sc4ccnc(N)c4Cl)c(N)n3)CC2)C1N
> 10000 nM: IC50 [1] | IC50 [2] | IC50 [3] | IC50 [4] | IC50 [5]
inactive: viability, T/C [6] 111% | viability, T/C [7] 113% | viability, T/C [8] 106% | viability, T/C [9] 104% | viability, T/C [10] 100% | viability, T/C [11] 95.8% | viability, T/C [12] 103% | viability, T/C [13] 109% | viability, T/C [14] 104% | viability, T/C [15] 103% | viability, T/C [16] 104% | viability, T/C [17] 89.6% | viability, T/C [18] 145% | viability, T/C [19] 149% | viability, T/C [20] 143% | viability, T/C [21] 137% | viability, T/C [22] 118% | viability, T/C [23] 104% | viability, T/C [24] 81% | viability, T/C [25] 90.4% | viability, T/C [26] 85.1% | viability, T/C [27] 86% | viability, T/C [28] 78.9% | viability, T/C [29] 77.6% | viability, T/C [30] 78.3% | viability, T/C (second compound 10 µM, first compound 0.1 µM) 87.4% | viability, T/C (second compound 10 µM, first compound 0.316 µM) 132% | viability, T/C (second compound 10 µM, first compound 1 µM) 81% | viability, T/C (second compound 10 µM, first compound 3.16 µM) 70.7% | viability, T/C (second compound 10 µM, first compound 10 µM) 67.1%

Cn1nccc1Nc1nccc(-c2cc3c(s2)C(C)(C)N(CCN2CCOCC2)C3=O)n1
inactive: viability, T/C (compound 0.0316 µM) 99.9% and 99.7% | viability, T/C (compound 0.1 µM) 86.3% and 84.2% | viability, T/C (compound 0.316 µM) 59.1% and 65.2% | viability, T/C (compound 1 µM) 45.5% and 45.8% | viability, T/C (compound 3.16 µM) 35.7% and 37.9% | viability, T/C (compound 10 µM) 31.1% and 35.9%
665 nM and 799 nM: IC50 (curve of compound)

CCN1CCN(Cc2ccc(Nc3ncc(F)c(-c4cc(F)c5nc(C)n(C(C)C)c5c4)n3)nc2)CC1
inactive: viability, T/C (compound 0.00316 µM) 108% (2×) and 101% and 103% (2×) | viability, T/C (compound 0.01 µM) 100% [middle of 5 runs] | viability, T/C (compound 0.0316 µM) 89.9% [middle of 5 runs] | viability, T/C (compound 0.1 µM) 88.7% [middle of 5 runs] | viability, T/C (compound 0.316 µM) 92.5% [middle of 5 runs] | viability, T/C (compound 1 µM) 94% [middle of 5 runs]
> 1000 nM: IC50 (curve of compound)

CC(=O)Nc1cccc(-n2c(=O)n(C3CC3)c(=O)c3c(Nc4ccc(I)cc4F)n(C)c(=O)c(C)c32)c1 + C=CC(=O)N1CCN(c2nc(=O)n(-c3c(C)ccnc3C(C)C)c3nc(-c4c(O)cccc4F)c(F)cc23)C(C)C1
2 nM: IC50 [3]
1.36 nM: IC50 [4]
inactive: viability, T/C (second compound 0.1 µM, first compound 0.0001 µM) 102% | viability, T/C (second compound 0.1 µM, first compound 0.000316 µM) 81.2% | viability, T/C (second compound 0.1 µM, first compound 0.001 µM) 55.9% | viability, T/C (second compound 0.1 µM, first compound 0.00316 µM) 42.2% | viability, T/C [31] 30% | viability, T/C [6] 21.3% | viability, T/C (second compound 0.316 µM, first compound 0.0001 µM) 114% | viability, T/C (second compound 0.316 µM, first compound 0.000316 µM) 83% | viability, T/C (second compound 0.316 µM, first compound 0.001 µM) 54.6% | viability, T/C (second compound 0.316 µM, first compound 0.00316 µM) 40.1% | viability, T/C [32] 30.6% | viability, T/C [12] 21.4% | viability, T/C (second compound 1 µM, first compound 0.0001 µM) 92.5% | viability, T/C (second compound 1 µM, first compound 0.000316 µM) 84.3% | viability, T/C (second compound 1 µM, first compound 0.001 µM) 61.2% | viability, T/C (second compound 1 µM, first compound 0.00316 µM) 41.7% | viability, T/C [33] 31.9% | viability, T/C [18] 23.8% | viability, T/C (second compound 3.16 µM, first compound 0.0001 µM) 84.6% | viability, T/C (second compound 3.16 µM, first compound 0.000316 µM) 81.5% | viability, T/C (second compound 3.16 µM, first compound 0.001 µM) 52.4% | viability, T/C (second compound 3.16 µM, first compound 0.00316 µM) 38.7% | viability, T/C [34] 30.1% | viability, T/C [24] 26.6% | viability, T/C (second compound 10 µM, first compound 0.0001 µM) 61.6% | viability, T/C (second compound 10 µM, first compound 0.000316 µM) 51.3% | viability, T/C (second compound 10 µM, first compound 0.001 µM) 29.3% | viability, T/C (second compound 10 µM, first compound 0.00316 µM) 26.4% | viability, T/C (second compound 10 µM, first compound 0.01 µM) 23.2% | viability, T/C [30] 18.6%
1.74 nM: IC50 [1]
1.57 nM: IC50 [2]
0.33 nM: IC50 [5]

CC1COCCN1c1cc(-c2ccnn2C)c2ccnc(-c3ccn[nH]3)c2n1 (configuration not stated) + C=CC(=O)N1CCN(c2nc(OCC3CCCN3C)nc3c2CCN(c2cccc4cccc(C)c24)C3)CC1CC#N
723 nM: IC50 [2]
298 nM: IC50 [3]
inactive: viability, T/C (second compound 0.0316 µM, first compound 0.01 µM) 102% | viability, T/C [36] 77.8% | viability, T/C [37] 64.8% | viability, T/C [38] 58.8% | viability, T/C [39] 48.8% | viability, T/C [40] 49.3% | viability, T/C [31] 103% | viability, T/C [6] 83.7% | viability, T/C [7] 65.5% | viability, T/C [8] 54.5% | viability, T/C [9] 45.8% | viability, T/C [10] 51.2% | viability, T/C [32] 95% | viability, T/C [12] 74.6% | viability, T/C [13] 60.8% | viability, T/C [14] 54.6% | viability, T/C [15] 46.4% | viability, T/C [16] 47.8% | viability, T/C [33] 85% | viability, T/C [18] 76.3% | viability, T/C [19] 59.7% | viability, T/C [20] 51.5% | viability, T/C [21] 41.6% | viability, T/C [22] 42.4% | viability, T/C [34] 53.4% | viability, T/C [24] 46.5% | viability, T/C [25] 37.2% | viability, T/C [26] 33.5% | viability, T/C [27] 25.4% | viability, T/C [28] 23.4%
909 nM: IC50 [1]
17 nM: IC50 [4]
1790 nM: IC50 [35]

Cn1nccc1Nc1nccc(-c2cc3c(s2)C(C)(C)N(CCN2CCOCC2)C3=O)n1 + C=CC(=O)N1CCN(c2nc(OCC3CCCN3C)nc3c2CCN(c2cccc4cccc(C)c24)C3)CC1CC#N
active: viability, T/C [29] 9.26%
601 nM: IC50 [35]
421 nM: IC50 [3]
< 31.6 nM: IC50 [4]
inactive: viability, T/C [36] 98.1% | viability, T/C [37] 81% | viability, T/C [38] 57.7% | viability, T/C [39] 43.8% | viability, T/C [40] 34% | viability, T/C (second compound 0.0316 µM, first compound 10 µM) 29.6% | viability, T/C [6] 97.5% | viability, T/C [7] 78.4% | viability, T/C [8] 58% | viability, T/C [9] 39.5% | viability, T/C [10] 32.8% | viability, T/C [11] 31.8% | viability, T/C [12] 87.2% | viability, T/C [13] 72.8% | viability, T/C [14] 48.2% | viability, T/C [15] 38.2% | viability, T/C [16] 31.4% | viability, T/C [17] 29.2% | viability, T/C [18] 75.5% | viability, T/C [19] 69.4% | viability, T/C [20] 55% | viability, T/C [21] 36.1% | viability, T/C [22] 29.6% | viability, T/C [23] 28.2% | viability, T/C [24] 45.8% | viability, T/C [25] 32.2% | viability, T/C [26] 25.5% | viability, T/C [27] 18.1% | viability, T/C [28] 14.7%
315 nM: IC50 [2]
506 nM: IC50 [1]

C=CC(=O)N1CCN(c2nc(=O)n(-c3c(C)ccnc3C(C)C)c3nc(-c4c(O)cccc4F)c(F)cc23)C(C)C1 (configuration not stated)
inactive: viability, T/C (compound 0.1 µM) 107% [middle of 15 runs] | viability, T/C (compound 0.316 µM) 107% [middle of 15 runs] | viability, T/C (compound 1 µM) 106% [middle of 15 runs]
> 10000 nM: IC50 (compound alone, run of 08/19/2021) | IC50 (compound alone, run of 08/26/2021) | IC50 (compound alone, run of 09/02/2021)

CC(=O)Nc1cccc(-n2c(=O)n(C3CC3)c(=O)c3c(Nc4ccc(I)cc4F)n(C)c(=O)c(C)c32)c1
inactive: viability, T/C (compound 0.0001 µM) 89.6% [middle of 5 runs] | viability, T/C (compound 0.000316 µM) 68.2% [middle of 5 runs] | viability, T/C (compound 0.001 µM) 49.6% [middle of 5 runs] | viability, T/C (compound 0.00316 µM) 36.5% [middle of 5 runs] | viability, T/C (compound 0.01 µM) 25.7% [middle of 5 runs] | viability, T/C (compound 0.0316 µM) 18.6% [middle of 5 runs]
0.966 nM [middle of 5 runs]: IC50 (curve of compound)
